PubChem BioAssay AID1745844 (Carcinogenic Potency Database (CPDB), 2022)
Activity calls are given as the source filed them. The rule behind the calls is not given here.

Tested on: rodent lifetime carcinogenesis bioassay, tumor incidence TD50
Test: chronic cancer bioassays in animals – CPDB, compiled studies (AID 1745844)

`O=S1(=O)CC=CC1` was tested, and the carcinogen call (mouse, strain B6C3F1, females, by gavage, site: any site (literature study), lesion: several types, types named in the paper, dosed 78 weeks, study length 90 weeks) was “negative (inactive)”, the TD50 (mouse, strain B6C3F1, females, by gavage, site: lung, lesion: alveolar/bronchiolar adenoma + alveolar/bronchiolar carcinoma, dosed 78 weeks, study length 90 weeks) was 1940 mg/kg/day and the TD50 (mouse, strain B6C3F1, males, by gavage, site: any site (literature study), lesion: several types, types named in the paper, dosed 78 weeks, study length 90 weeks) was 631 mg/kg/day (inactive). The TD50 (mouse, strain B6C3F1, males, by gavage, site: liver, lesion: hepatocellular adenoma + hepatocellular carcinoma + neoplastic nodule, dosed 78 weeks, study length 90 weeks) was 415 mg/kg/day, the TD50 (mouse, strain B6C3F1, males, by gavage, site: lung, lesion: alveolar/bronchiolar adenoma + alveolar/bronchiolar carcinoma, dosed 78 weeks, study length 90 weeks) was 882 mg/kg/day and the TD50 (rat, strain Osborne-Mendel, females, by gavage, site: any site (literature study), lesion: several types, types named in the paper, dosed 78 weeks, study length 111 weeks) was 5370 mg/kg/day (inactive). The TD50 (rat, strain Osborne-Mendel, males, by gavage, site: any site (literature study), lesion: several types, types named in the paper, dosed 69 weeks, study length 111 weeks) was 30.8 mg/kg/day (inactive).

With `P` the TD50 (rat, strain Fischer 344, females, inhaled, site: liver, lesion: hepatocellular adenoma, dosed 104 weeks, study length 104 weeks) was 53.1 mg/kg/day (inactive), the carcinogen call (rat, strain Fischer 344, females, inhaled, site: liver, lesion: one or several types, types not named, dosed 52 weeks, study length 52 weeks) was “negative (inactive)” and the TD50 (rat, strain Fischer 344, males, inhaled, site: liver, lesion: hepatocellular adenoma, dosed 104 weeks, study length 104 weeks) was 5.69 mg/kg/day (inactive). The carcinogen call (rat, strain Fischer 344, males, inhaled, site: liver, lesion: hepatocellular carcinoma, dosed 104 weeks, study length 104 weeks) was “negative (inactive)”, the carcinogen call (rat, strain Fischer 344, males, inhaled, site: liver, lesion: one or several types, types not named, dosed 52 weeks, study length 52 weeks) was “negative (inactive)” and the carcinogen call (rat, strain Sprague-Dawley, females, in feed, site: any site (literature study), lesion: one or several types, types not named, dosed 52 weeks, study length 52 weeks) was “negative (inactive)”. For the same compound, the carcinogen call (rat, strain Sprague-Dawley, females, in feed, site: any site (literature study), lesion: several types, types named in the paper, dosed 104 weeks, study length 104 weeks) was “negative (inactive)”, the carcinogen call (rat, strain Sprague-Dawley, males, in feed, site: any site (literature study), lesion: one or several types, types not named, dosed 52 weeks, study length 52 weeks) was “negative (inactive)” and the carcinogen call (rat, strain Sprague-Dawley, males, in feed, site: any site (literature study), lesion: several types, types named in the paper, dosed 104 weeks, study length 104 weeks) was “negative (inactive)”.

`CC(C)Oc1ccccc1OC(=O)N(C)N=O` showed a TD50 (rat, strain Sprague-Dawley, males, by gavage, site: forestomach, lesion: carcinoma, dosed 31 weeks, study length 90 weeks) of 0.434 mg/kg/day and a TD50 (rat, strain Sprague-Dawley, males, by gavage, site: forestomach, lesion: one or several types, types not named, dosed 31 weeks, study length 90 weeks) of 0.364 mg/kg/day.

With `Cc1ccc(Cc2cnc(NCCSCc3ccc(CN(C)C)o3)[nH]c2=O)cn1` the carcinogen call (mouse, strain SK&F Swiss, females, by gavage, site: gastric mucosa, lesion: carcinoid tumor, malignant, dosed 91 weeks, study length 91 weeks) was “negative (inactive)”, the carcinogen call (mouse, strain SK&F Swiss, males, by gavage, site: gastric mucosa, lesion: carcinoid tumor, malignant, dosed 91 weeks, study length 91 weeks) was “negative (inactive)” and the TD50 (rat, strain SK&F Wistar, females, by gavage, site: gastric mucosa, lesion: carcinoid tumor, malignant, dosed 100 weeks, study length 100 weeks) was 2990 mg/kg/day. The TD50 (rat, strain SK&F Wistar, males, by gavage, site: gastric mucosa, lesion: carcinoid tumor, malignant, dosed 100 weeks, study length 100 weeks) was 3830 mg/kg/day.
